For experiment [1], the system named is HT-1080 cells. Briefly: LOC library screening and confirmation: inhibition of erastin-induced ferroptosis. The class given is cell-based, human. Particulars: LOC library screening and confirmation studies, read-out: EC50, inhibitor of erastin-induced ferroptosis. The method, then: The LOC library was screened over the course of several days. 384-well glass bottom assay plates (Corning) were seeded with 1,000 HT-1080 cells/well the day before the experiment. The day of the experiment, LOC mother plates were thawed at room temperature for 1 hour and spun at 1000 rpm for 1 minute prior to use. Using a BioMek liquid handing robot, 2 μL of compound solution from each LOC library mother plate was transferred to a 384 deep well “daughter” plate (Grenier) containing 148 μL of cell culture media. The cell culture media in each assay plate was then removed by flicking and, using a BioMek FX, replaced with 36 μL of growth media containing erastin (5 μM final). To this was added 4 μL of the drug solution from the daughter plate, for a final screening concentration of 5.3 μg/mL for each LOC library compound. 4 wells containing DMSO alone (no erastin), 4 wells containing 100 μM DFO alone (no erastin), 4 wells containing erastin plus DMSO, and 4 wells containing erastin plus 100 μM DFO (positive control) were included as controls on each plate. Each drug daughter plate was aliquoted separately to duplicate assay plates. Plates were then spun briefly (1000 rpm, 5 seconds) and returned to the 37° C. tissue culture incubator. 24 hours later, cell viability was assessed by Alamar Blue as described above.
Candidate hits from the LOC library screen were identified. […]

Experiment [2] deals with rat organotypic hippocampal slice culture (OHSC). Briefly: Glutamate-induced excitotoxic cell death in organotypic hippocampal slice cultures (PI uptake). The conditions noted are these: 5 mM L-glutamate 3 hours; 24 hours after; DG, CA1, CA3; Fer-1 2 μM, CPX 5 μM, MK-801 10 μM. The class given is cell-based. As for the experimental part:
OHSCs were cultured as previously described (Morrison et al., 2002) with approval from Columbia University's Institutional Animal Care and Use Committee (IACUC). Briefly, Sprague Dawley rat pups (P8-P10) were rapidly decapitated, and the hippocampus placed in ice-cold Gey's balanced salt solution (Sigma). 400 μm thick sections were cut using a Mcllwain tissue chopper and immediately plated on Millicell cell culture inserts (Millipore, Billerica, Mass.) in Neurobasal (Invitrogen) media supplemented with B27 (1×, Invitrogen), GlutaMAX (1 mM, Invitrogen), and D-glucose (4.5 mg/mL, Sigma) at 37° C. and 5% CO2. After 2 days in vitro (DIV), the media was changed to medium containing serum comprised of 50% DMEM (Sigma), 25% heat-inactivated horse serum (Sigma), 25% Hank's balanced salt solution (Sigma), GlutaMAX (1 mM, Invitrogen), and D-glucose (4.5 mg/mL, Sigma). Medium was changed every 2-3 days.
After 10-14 DIV, OBSCs were exposed to an excitotoxic injury consisting of a 3 hour exposure to 5 mM L-glutamate in SFM (Morrison et al., 2002). Only healthy OHSCs defined as those with less than 5% cell death in all regions of the hippocampus (DG, CA3, CA1) pre-injury were used for experiments. After the 3 hour exposure, the cultures were placed in fresh serum free media (SFM) containing 75% DMEM, 25% Hank's balanced salt solution, GlutaMAX (1 mM), D-glucose (4.5 mg/mL) until cell death was quantified at 24 hours. If drugs were added, they were added at the same time as glutamate.
Quantification of cell death has been described previously (Cater et al., 2007; Morrison et al., 2002). Brightfield images of the hippocampal cultures were taken before injury for identification of regions of interest (ROI) including the dentate gyrus (DG), CA3 and CA1. Propidium iodide (PI, Invitrogen) was used as a fluorescent signal for cell death, and images were taken before the induction of injury and 24 hours following injury. […] Percentage cell death was expressed as the number of pixels in the ROI above a threshold in the PI fluorescent image divided by the total number of pixels in the ROI.

Consider `CCOC(=O)c1ccc(NC2CCCCC2)c(N)c1` [Fer-1, ferrostatin-1], for which, in experiment [1], the EC50 was 0.06 µM. Moreover, the “glutamate-induced cell death (PI uptake)” value in experiment [2] was “attenuated significantly and to an almost identical extent”.

The values are drawn from US9580398B2, “Compounds, compositions, and methods for modulating ferroptosis and treating excitotoxic disorders” (The Trustees of Columbia University in the City of New York, priority 2012, dated 2017).
